Experimental data reported in US9572814B2, “Methods of improving the pharmacokinetics of doxepin” (Pernix Sleep, Inc., priority 2006, dated 2017).
Where two headings read alike, the source gives them in different places.

Assays:
clinical = conditions: both, human, plasma, po, 6 milligram
[1] = calculated from geometric LS means, single 6 milligram dose
[2] = plasma, single 6 milligram doxepin tablet, fasted (N = 15)
[3] = plasma, single 6 milligram doxepin tablet, fed (N = 16)
[4] = ratio of geometric LS means, 6 milligram doxepin tablet
[5] = single 6 milligram doxepin tablet, fasted (N 15)
[6] = single 6 milligram doxepin tablet, fed (N 16)
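Note: healthy young adult men and women, dosed in the morning. Doxepin in plasma by validated HPLC-MS/MS (LLOQ 0.05 ng/mL), parameters by noncompartmental analysis on actual elapsed time after dosing.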

Cmax (clinical): 0.854 ng/mL | Tmax (clinical): 3 h | time postdose at which detectable plasma levels were first observed (both fed and fasted states (six and five subjects, respectively)): 30 min | time postdose up to which plasma doxepin concentrations remained quantifiable (both treatments (fed and fasted), lower limit of quantification 0.05 ng/mL): up to 48 hours | AUC0-∞, Effect of Food (% of fasted state) [1]: 141 % of fasted state | Cmax, Effect of Food (% of fasted state) [1]: 115 % of fasted state | Tmax, Effect of Food (% of fasted state) (median Tmax, single 6 milligram dose): 200 % of fasted state | AUC0-Tlast, arithmetic mean [2]: 12.6 ng·h/mL | AUC0-∞, arithmetic mean [2]: 14.1 ng·h/mL | t1/2, arithmetic mean [2]: 14.4 h | λz, arithmetic mean [2]: 0.0623 h⁻¹ | Cmax, arithmetic mean [3]: 0.951 ng/mL | Tmax, median [3]: 6.0 h | λz, arithmetic mean [3]: 0.0445 h⁻¹ | AUC0-Tlast, Pairwise Comparison Ratio Fed/Fasted [4]: 145.6% | AUC0-∞, Pairwise Comparison Ratio Fed/Fasted [4]: 141.3% | Cmax, Pairwise Comparison Ratio Fed/Fasted [4]: 114.6% | increase in AUC0-Tlast under fed conditions compared to fasted conditions (single 6 milligram dose): 46% | mean CL/F lower in the fed state compared to the fasted state (single 6 milligram dose): 43% | mean Vd/F lower in the fed state compared to the fasted state (single 6 milligram dose): 14% | time postdose by which all subjects had detectable concentrations (single 6 milligram dose): ≤ 90 min | time postdose at which mean plasma concentrations reach Cmax (single 6 milligram dose, fasted state (Treatment A)): 3.0 h | time postdose at which mean plasma concentrations reach Cmax (single 6 milligram dose, fed state (Treatment B)): 6.0 h | AUC0-Tlast, Geometric LS Mean [5]: 9.194 ng·h/mL | AUC0-∞, Geometric LS Mean [5]: 10.72 ng·h/mL | Cmax, Geometric LS Mean [5]: 0.717 ng/mL | CL/F, arithmetic mean (single 6 milligram doxepin tablet, fasted (N = 15)): 837 L/h | AUC0-Tlast, Geometric LS Mean [6]: 13.39 ng·h/mL | AUC0-∞, Geometric LS Mean [6]: 15.14 ng·h/mL | Cmax, Geometric LS Mean [6]: 0.822 ng/mL | CL/F, arithmetic mean (single 6 milligram doxepin tablet, fed (N = 16)): 477 L/h
SMILES: CN(C)CCC=C1c2ccccc2COc2ccccc21 [doxepin]
